Measurements: a melting point compilation (Tetko et al.; mined from patent text by program, amines drawn as free bases though some values may be those of a salt)

`COC1(C)CCc2c(C)c(OCc3ccccc3)c(C)c(C)c2O1` (stereo unspecified) showed a melting point of 70 to 72.5 °C. Work on `CC(CO)n1cnc2c(I)ncnc21` (stereo unspecified) yielded a melting point of 193 to 194 °C. `CCCCCCCC(=O)c1ccc(CCOS(=O)(=O)c2ccc(C)cc2)cc1` gave a melting point of 59 to 60 °C. `O=C1C(=O)c2ccccc2C2=C1SCC1(CCN(Cc3c(F)cccc3Cl)CC1)O2` showed a melting point of 90 to 92 °C. `COc1cc(NC2=C(Cl)C(=O)c3ccccc3C2=O)ccc1S(=O)(=O)Nc1ccccc1C` gave a melting point of 197 to 200 °C. Compound `Fc1cccc(F)c1-c1cncn1-c1ccc(Cl)cc1` has a melting point of 170 to 172 °C. `CCCCc1ccc(NCc2ccc(N(C)C)cc2)cc1` showed a melting point of 60 to 61 °C. In the case of `CC(=O)Oc1c(-c2ccc(=O)[nH]n2)cc(Br)c(C)c1Br`, the melting point is reported as 220 °C. Compound `CS(=O)(=O)N1CCC(NC(=O)Nc2ccc(OC(F)(F)F)cc2)CC1` has a melting point of 233 to 234 °C. Compound `O=Cc1ccc2c(c1)CCC2` has a melting point of 85 to 86 °C. `N#CSc1cc(N)c(N)cc1Cl` gave a melting point of 108 to 110 °C. Work on `CN1CCC(OC2c3ccccc3CCn3c2nc(-c2ccccc2)c3I)CC1` (stereo unspecified) yielded a melting point of 153 °C. Compound `COc1nc(OC)nc(N(C)C(=O)NS(=O)(=O)c2ccccc2S(C)(=O)=O)n1` has a melting point of 160 to 162 °C. `CNC(=O)c1cc(C)ccc1Nc1nc(Nc2ccc3c(c2)CCN(CCOC)CC3)ncc1Cl` gave a melting point of 210 to 212 °C. For `COCC(=O)NS(=O)(=O)c1cccc(-c2cccc(-c3cc(-c4ccc(C(F)(F)F)cc4)cc(C)n3)n2)c1`, the melting point was 188 °C. `CCCCCCCCCCCCCCOc1ccc(CNc2ccccc2CO)cc1` showed a melting point of 72 to 75 °C. `CCC1(CC)CN(C(C)(C)C)C(=O)C(CC)(CC)N1OC(=O)c1ccccc1` gave a melting point of 91 to 93 °C. `COc1cc2ccc(C(=O)N3CCN(C(=O)c4cc(OC)c(OC)c(OC)c4)CC3)cc2cc1OC` showed a melting point of 224 to 226 °C. With `Cc1cc2n(C)c3ccncc3c(=O)n2n1` the melting point was > 300 °C. `CCCc1nn(-c2ccc(C(F)(F)F)cn2)cc1CCCCOc1ccc(CC(=O)O)cc1` showed a melting point of 121 to 122 °C. `C=C1CC2C3CCC4=CC(=O)C=CC4(C)C3=CCC2(C)C1=O` (stereo unspecified) showed a melting point of 157 to 160 °C. `C#CCn1c(-c2cc(Cl)nc(Cl)c2)nc(C)c(CC)c1=O` gave a melting point of 143 to 144 °C. Compound `Cc1nc2sc([N+](=O)[O-])cc2c(=O)n1-c1ccc([N+](=O)[O-])cc1Cl` has a melting point of 166 to 168 °C. In the case of `CC(=O)C(c1ccccc1)c1cccc2c1NCC2` (stereo unspecified), the melting point is reported as 55 to 56 °C. With `CNC(=O)C(C)Oc1ncn(-c2ccc(C(F)(F)F)cc2)n1` (stereo unspecified) the melting point was 157 to 158 °C. Compound `CC(C)c1ccc(N(Cc2cnn(Cc3cccs3)c2)C(=O)C2CCCc3c(O)cccc32)cn1` (stereo unspecified) has a melting point of 125 to 129 °C. Work on `Clc1ccc([Si](Cl)(Cl)Cl)cc1` yielded a melting point of 60 to 61 °C. `COC(=O)COCc1c(OC)ccc(OC)c1C=O` showed a melting point of 177 to 179 °C. Compound `NC(=O)CN1C[C@@H]2CCCC[C@@H]2C1=O` (relative stereo) has a melting point of 142 to 144 °C. Work on `CC1(C)N=C(Oc2ccccn2)c2cc(F)ccc2O1` yielded a melting point of 114 °C. Compound `Brc1ccc(-c2ccc(-c3ccc(Br)cc3)o2)cc1` has a melting point of 198 to 199 °C. `O=C(O)[C@@H]1OC(c2ccccc2)=N[C@H]1c1ccccc1` gave a melting point of 135 °C. For `CC(C)(C#N)c1ccc(OCc2ccccc2)cc1`, the melting point was 63 to 64 °C. For `Cc1cc(OCC(=O)O)ccc1NC(=O)c1ccc(N2CCNCC2)cc1`, the melting point was > 250 °C. Compound `COC(=O)c1ccc(NN)cc1S(=O)(=O)NC(C)(C)C` has a melting point of 133 to 136 °C. Work on `COc1cc2c3c(c1OC)C=NCC3c1ccccc1CC2` (stereo unspecified) yielded a melting point of 131 to 132 °C. Compound `CC(C)OC(=O)c1cc(Cl)c(Cl)c(-c2ccccc2)n1` has a melting point of 94 to 96 °C. In the case of `O=c1[nH]c2ccc(C(F)(F)F)cc2c2c1c(=O)oc1ccc(Cl)cc12`, the melting point is reported as > 250 °C. `CCOC(=O)C(=C(c1ccc(F)cc1)c1ccc(F)cc1)c1nnn(CC)n1` showed a melting point of 113 to 114 °C. Compound `O=C1CCCCN1[C@@H]1c2cc(C(F)(F)C(F)(F)C(F)(F)F)ccc2OC(CF)(CF)[C@H]1O` (relative stereo) has a melting point of 156 to 157 °C. `O=C(O)CCCCCCNC(=O)C(CS)Cc1ccccc1` (stereo unspecified) showed a melting point of 71 to 73 °C. In the case of `O=c1c2cc(F)c(N3CCCC3)cc2n(-c2cccc(F)c2)c(=O)n1O`, the melting point is reported as 239 to 241 °C. For `N=C(N)c1cccc(S(=O)(=O)c2ccc(OC[C@@H]3C[C@@H](CC(=O)O)C(=O)N3CCCc3ccccc3)cc2)c1`, the melting point was 205 to 207 °C. For `COc1cc(OCc2ccccn2)ccc1/C=C/c1cc(/C=C/c2ccc3cc[nH]c3c2)n(C(C)O)n1` (stereo unspecified), the melting point was 94 to 97 °C. `CC(=O)SC1NC(=O)C1C` (stereo unspecified) gave a melting point of 53 to 65 °C. Work on `Cc1nc(C(F)F)c(C(=O)Nc2ccccc2-c2ccc(Br)cc2)s1` yielded a melting point of 151 °C. For `CN(C)CCNC(=O)c1nc(N)sc1-c1ccccn1`, the melting point was 143 to 144 °C. For `NC(=O)c1ccc([N+](=O)[O-])c(C(N)=O)c1`, the melting point was 287 to 289 °C. For `COC(=O)CCCC#Cc1cc(Cl)ccc1NS(=O)(=O)c1c(C)noc1C`, the melting point was 107 to 109 °C. `Cc1c2c(nn1-c1ccc(Cl)cc1F)CCCC2` showed a melting point of 84.5 to 87.5 °C. Work on `Clc1ccc(C(c2ccccc2)(c2ncc[nH]2)c2ncc[nH]2)cc1` yielded a melting point of 140 °C. Work on `Cc1ccc(C(=O)c2cc(CN(C)CCO)c(O)c(C(C)(C)C)c2)cc1` yielded a melting point of 131 to 132 °C. In the case of `COc1ccc(CC(C#N)c2cc(OC)c(OC)c(OC)c2)cc1` (stereo unspecified), the melting point is reported as 82 to 83 °C. In the case of `CCc1cccc2ccc(C=O)c(OCOC)c12`, the melting point is reported as 41.5 to 42.5 °C. For `CC(=O)Nc1ccc(CNC(=O)c2ccccc2)cc1`, the melting point was 175 to 177 °C. `CCOC(=O)N(c1ccccc1)c1cc(Cl)ccc1N=NC(NC(=O)CCl)(C(=O)OCC)C(=O)OCC` gave a melting point of 105 to 110 °C. In the case of `N#Cc1cnn(-c2c(Cl)cc(C(F)(F)F)c(Cl)c2Cl)c1N`, the melting point is reported as 186 to 187 °C. `Cc1c(Cl)cccc1S(=O)(=O)Nc1ccc2c(c1)nc(C)n2C` showed a melting point of 283 to 284 °C. With `Cc1nc(-c2ccc(N(C)C)cc2)sc1C(=O)O` the melting point was 226 to 231 °C. For `CC(=O)NC[C@H]1CN(c2ccc(N3CCC(C#N)(Nc4ccc(C#N)cc4)CC3)c(F)c2)C(=O)O1`, the melting point was 210 to 212 °C. `COCCO[C@@H]1c2ccn3c(C)c(C)nc3c2N[C@H](c2ccccc2)[C@H]1OC(=O)CCCCBr` gave a melting point of 98.6 °C. For `Cn1ncc(C(=O)N2CCCC2)c1C(=O)Nc1ccc2nc(-c3cccnc3)nn2c1`, the melting point was 251 °C. Work on `O=C(O)Cc1ccc(OCc2ccccc2)c(C(=O)O)c1` yielded a melting point of 143 to 145 °C. For `O=[N+]([O-])c1c(Br)nn(CCO)c1Br`, the melting point was 103 to 105 °C. Compound `CC1CCCCC1NC(=O)C1=C(C(=O)Nc2cc(OC3CCCC3)c(Cl)cc2F)CCCC1` (stereo unspecified) has a melting point of 192 to 195 °C. `CC1(C)C(=O)N(c2ccc(C#N)c(C(F)(F)F)c2)C(=S)N1CCCO` showed a melting point of 149 to 150 °C. Compound `CC1(C)Oc2cc([N+](=O)[O-])c(NC(=O)Cc3ccc(-c4ccccc4)cc3)cc2C2OC21` (stereo unspecified) has a melting point of 171 to 174 °C. For `O=C(C1CCCc2c1c1ccccc1n2Cc1ccccc1)N1CCN(c2ccccc2)CC1` (stereo unspecified), the melting point was 273 to 274 °C. With `O=c1[nH]c2ccc(I)cc2c(=O)n1-c1ccc(Cl)cc1` the melting point was 324 to 326 °C. Work on `COc1cc(COc2nn(C)cc2C(C)O)ccc1OCc1nc(-c2ccccc2)oc1C` (stereo unspecified) yielded a melting point of 94 to 95 °C. For `O=S(=O)(Nc1cc(F)ccc1F)c1ccccc1`, the melting point was 115 °C. For `COc1ccc(S(=O)(=O)Nc2cccc(C)c2NC(=O)c2cccnc2)cc1`, the melting point was 207 to 209 °C. In the case of `NC(=O)c1cc2c(Oc3ccc(Cl)c(F)c3)cncc2s1`, the melting point is reported as 227 to 228 °C. With `CCCCCCCCCCCCCCCCNc1ccc(C(=O)OC)cc1` the melting point was 74 to 75 °C. Compound `O=C(CCl)c1csc(C(=O)CCl)c1` has a melting point of 154 to 155 °C. Work on `Cc1ccc(OC2CCN(C(C=O)Nc3ccc4c(c3)OCC(=O)N4)CC2)cc1` (stereo unspecified) yielded a melting point of 223 to 224 °C. Work on `CC(C)(CNC(=O)[C@H](O)[C@H](O)COC(=O)Cc1ccccc1Nc1c(Cl)cccc1Cl)SN=O` yielded a melting point of 57 to 59 °C. For `CCOC(=O)C1=C(Cl)/C(=N/OS(C)(=O)=O)CC(c2ccc(Cl)c(OC)c2F)N1` (stereo unspecified), the melting point was 60 to 62 °C. `CCOC(=O)[C@@H]1C[C@@H](O)CN1S(C)(=O)=O` showed a melting point of 111 to 113 °C. With `O=C(O)C1=Cc2cc(Cl)ccc2NC1C(F)(F)F` (stereo unspecified) the melting point was 133 to 134 °C. `Cc1cc2c(c(C)c1Br)C(c1ccc(C(C)C)cc1)CS2` (stereo unspecified) gave a melting point of 98 to 100 °C. `CCOC(=O)C1(C(=O)N(Cc2ccccc2)Cc2ccccc2)CC(=O)N(Cc2ccccc2)C1` (stereo unspecified) showed a melting point of 112 to 115 °C. `Cc1ncc(C#N)c(Nc2ccc3[nH]ccc3c2C)c1-c1cc2cc(C=O)ccc2o1` gave a melting point of 168 to 169 °C. In the case of `CCOC(=O)[C@H](Cc1cccc(-c2ccc3ccccc3c2)c1)NC(=O)C(F)(F)F`, the melting point is reported as 89 to 91 °C. `CC1(C)CC(C2=NN(CC#N)C(=O)N(/N=C/c3cncc(F)c3)C2)=NO1` showed a melting point of 195 to 197 °C. `Cc1ccc(N)cc1Nc1cc(-c2cncnc2)ccn1` gave a melting point of 179 to 180 °C. `COc1cc(O[Si](C)(C)C(C)(C)C)c(C)c(C(=O)O)c1Br` showed a melting point of 120 to 125 °C. Compound `CC(C)(OC(=O)NC(Cc1c[nH]c2ccccc12)C(=O)NC(Cc1ccccc1)C(N)=O)C(Cl)(Cl)Cl` (stereo unspecified) has a melting point of 187 °C. Compound `CN(C(=O)c1cc2ccccc2s1)c1ccc(N2CCC(O)CC2)c(C#N)c1` has a melting point of 211 to 212 °C. In the case of `c1cncc(CC2CCN(CC34CC(c5ccccc53)c3ccccc34)CC2)c1`, the melting point is reported as 183 to 185 °C. For `O=c1ncc(Br)cn1CC(O)C(Cl)(Cl)Cl` (stereo unspecified), the melting point was 210 to 212 °C. Work on `Oc1ccc(C2COc3c(ccc(O)c3O)C2)cc1` (stereo unspecified) yielded a melting point of 225 to 226 °C. For `COC(=O)C1=Cc2cc(-c3ccc(N4CCCCC4)cc3)ccc2S(=O)(=O)CC1`, the melting point was 202 to 204 °C. With `CC12CCC3C(CC=C4CC(C(=O)CBr)CCC43C)C1CCC2=O` (stereo unspecified) the melting point was 150 °C. For `CN(C)C=CC=C(C#N)C(=O)N(C)C`, the melting point was 149 to 150 °C. With `COc1cccc2c1CCC(n1cc[nH]c1=S)C2` (stereo unspecified) the melting point was 233 to 235 °C. `O=C(O)Cc1ccc(NC(=O)CCc2cnn(-c3ccccc3)c2-c2ccccc2)cc1` gave a melting point of 199 to 201 °C. With `Nc1ncc(-c2ccccc2COc2ccccc2)s1` the melting point was 154 °C. `COCCCCCC=C(NC(=O)C1CC1(C)C)C(=O)O` (stereo unspecified) gave a melting point of 71 to 72 °C. For `CC(CCC(=O)c1ccccc1)C1CC=C2C3=C(CCC21C)C1(C)CCC(O)C(C)(C)C1CC3` (stereo unspecified), the melting point was 196 to 199 °C. Compound `CCNc1nc(N)nc2c1ncn2C1CC(N=[N+]=[N-])C(CO)O1` (stereo unspecified) has a melting point of 199 to 201 °C.
